Values quoted from earlier work as cited in PMC10146264, “Safety, Pharmacokinetic and Pharmacodynamic Evaluation of Teverelix for the Treatment of Hormone-Sensitive Advanced Prostate Cancer: Phase 2 Loading-Dose-Finding Studies” (Medicina, 2023).

Key:
patients = tested on: patients
From the text: In the United States, cardiovascular disease is the main cause of death for prostate cancer patients, and patients with prostate cancer have a higher risk of death from non-cancer causes than the general population. ADT is associated with a number of cardiometabolic side effects including decreased insulin sensitivity, changes in lipid profile, and an increased risk of thromboembolic and cerebrovascular events. The risk seems to be highest in elderly patients who have had recent cardiovascular events before starting ADT [27]. According to a Scientific Statement issued by the Am ...

[1] = tested on: patients with prostate cancer; conditions: in vivo

For `CONC(=O)Nc1ccc(-c2sc3c(c2CN(C)C)c(=O)n(-c2ccc(OC)nn2)c(=O)n3Cc2c(F)cccc2F)cc1` [relugolix], the “Major cardiovascular events, patients” value (patients; phase 3 randomized trial, within the first 12 months of treatment) is listed as 2.9% and the “Major cardiovascular events, HR [95% CI] GnRH antagonist vs GnRH agonist” value (patients; phase 3 trial relugolix vs leuprolide, first 12 months of treatment) is listed as 0.46.

In the case of Degarelix, the “Incidence of injection-site reactions” value [1] is given as ~ 40%.
